Reference: patent US20070190172A1, “Enhanced activity biocidal hydrogen peroxide composition” (ASEPTIX TECHNOLOGIES B.V., priority 2006, published 2007)

Tests used:
Feline Calici Virus = experiment: EN 14476 virucidal quantitative suspension test; assay type: cell-based
Protocol: (§1) In a similar way, fungicidal and virucidal activity was tested using tests dedicated for use with fungi of viruses. For fungi or yeasts, the tests according to European norms EN 1275, EN 1650 or EN 13624 were used. For viruses, the test according to European norm EN 14476 was used.
(§2) A composition comprising 2% H2O2 and 1% Monafax 1214 was prepared and tested against Vacciniavirus, Feline Calici Virus and Adenovirus according to the […] norm:
(§3) EN 14476—Chemical disinfectants and antiseptics—Virucidal quantitative suspension test for chemical disinfectants and antiseptics used in human medicine—Test methods and requirements (phase 2/step 1).

Adenovirus = experiment: EN 14476 virucidal quantitative suspension test; assay type: cell-based
Protocol: as §1, §2, §3

Bacillus cereus = experiment: EN 1276 bactericidal suspension test; assay type: cell-based; conditions: 1.2% H2O2 + 0.6% surfactant
From the text: (§4) Biocidal activity of a composition for use according to the invention is preferably determined by a controlled bactericidal suspension test conform European Norm for chemical disinfectants and antiseptics EN 1276 (EN 1276: Quantitative suspension test for the evaluation of bactericidal activity of chemical disinfectants and antiseptics used in food, industrial, domestic, and institutional areas: test method and requirements). An effective biocidal composition is a composition that provides at least a log 3 reduction after a 1 minute contact time with a Staphylococcus aureus test suspension of 10^8 cfu per ml, preferably at least a log 4 reduction, more preferably at least a log 5 reduction, most preferably at least a log 6 reduction.
(§5) Bactericidal activity of the exemplified compositions was tested using a controlled bactericidal suspension test conform European Norm for chemical disinfectants and antiseptics EN 1276 (EN 1276: Quantitative suspension test for the evaluation of bactericidal activity of chemical disinfectants and antiseptics used in food, industrial, domestic, and institutional areas: test method and requirements). One ml of a test suspension containing about 10^8 cfu of the test microorganism per ml is added to 8 ml of the composition to be tested, and 1 ml milli-Q water is added. In some experiments, a protein load was added to this suspension according to the EN 1276 procedures to simulate unclean practical conditions. To provide for a clean condition 0.3% Bovine Albumin was added and for a dirty condition 3% Bovine Albumin.
(§6) After 1, 2 and 5 minutes contact time, the amount of viable bacteria was determined.
(§7) To simulate unclean practical conditions, a protein load was added according to the EN 1276 procedures to bacterial test suspensions. To provide for a clean condition 0.3% Bovine Albumin was added and for a dirty condition 3% Bovine Albumin. The performance of Monafax 1214 was compared with that of the N,N-Dimethyldecylamine-N-oxide (Barlox 10s of Lonza Ltd.). A H2O2 concentration of 1.2% was used and a 0.6% of the respective surfactants. The solution containing Monafax has a pH of around 2.3 and the solution containing Barlox 10s has a pH of around 5.

Enterococcus hirae = experiment: EN 1276 bactericidal suspension test; assay type: cell-based; conditions: 1.2% H2O2 + 0.6% surfactant
From the text: as §4, §5, §6, §7

Lysteria monocytogenes = experiment: EN 1276 bactericidal suspension test; assay type: cell-based; conditions: 1.2% H2O2 + 0.6% surfactant
From the text: as §4, §5, §6, §7

Candida albicans = experiment: EN 1276 bactericidal suspension test; assay type: cell-based; conditions: 1.2% H2O2 + 0.6% surfactant
From the text: as §4, §5, §6, §7

Staphylococcus aureus [1] = experiment: EN 1276 bactericidal suspension test; assay type: cell-based; conditions: 1.2% H2O2 + 0.6% surfactant
From the text: as §4, §5, §6

Staphylococcus aureus [2] = conditions: background statement; cited from earlier work
[3] = clean condition 0.3% Bovine Albumin, 2 min
[4] = clean condition 0.3% Bovine Albumin, 5 min
[5] = dirty condition 3% Bovine Albumin, 2 min
[6] = dirty condition 3% Bovine Albumin, 5 min

## OO [2% H2O2, hydrogen peroxide]
Feline Calici Virus
  log reduction, 3 minutes: log 0.2
  log reduction, 5 minutes: log 0.9
Adenovirus
  log reduction, 5 minutes: log 0.6
  log reduction, 10 minutes: log 0.6

## CCCCCCCCCC[N+](C)(C)[O-] [Barlox 10s (Lonza), N,N-Dimethyldecylamine-N-oxide]
Bacillus cereus; [3]
  number of colonies, clean, 2 min: >300
Bacillus cereus; [4]
  number of colonies, clean, 5 min: >300
Bacillus cereus; [5]
  number of colonies, dirty, 2 min: >300
Bacillus cereus; [6]
  number of colonies, dirty, 5 min: >300
Enterococcus hirae; [3]
  number of colonies, clean, 2 min: 8
Enterococcus hirae; [4]
  number of colonies, clean, 5 min: 0
Enterococcus hirae; [5]
  number of colonies, dirty, 2 min: 6
Enterococcus hirae; [6]
  number of colonies, dirty, 5 min: 1
Lysteria monocytogenes; [3]
  number of colonies, clean, 2 min: >300
Lysteria monocytogenes; [4]
  number of colonies, clean, 5 min: >300
Lysteria monocytogenes; [5]
  number of colonies, dirty, 2 min: >300
Lysteria monocytogenes; [6]
  number of colonies, dirty, 5 min: >300
Candida albicans; [3]
  number of colonies, clean, 2 min: 300
Candida albicans; [4]
  number of colonies, clean, 5 min: 250
Candida albicans; [5]
  number of colonies, dirty, 2 min: >300
Candida albicans; [6]
  number of colonies, dirty, 5 min: >300
Staphylococcus aureus [1]; [3]
  number of colonies, clean, 2 min: >300
Staphylococcus aureus [1]; [4]
  number of colonies, clean, 5 min: >300
Staphylococcus aureus [1]; [5]
  number of colonies, dirty, 2 min: >300
Staphylococcus aureus [1]; [6]
  number of colonies, dirty, 5 min: >300

## OO [hydrogen peroxide]
Staphylococcus aureus [2]
  time to achieve a greater than log 6 reduction in Staphylococcus aureus: 20 seconds

## OO [3% w/w hydrogen peroxide, hydrogen peroxide]
Staphylococcus aureus [2]
  time to achieve a greater than 6 log reduction in Staphylococcus aureus: 20 minutes

## OO [3% H2O2, hydrogen peroxide]
Adenovirus
  log reduction, 5 minutes: log 0.5
  log reduction, 10 minutes: log 0.6
